Measured values as given in publication PMC13042944, “Substituent‐Based Modulation of Self‐Assembly and Immunogenicity of Amphipathic Peptides” (Advanced Science, 2026).
Read-outs that look alike come from different tables or passages of the source.

Key:
[1] = Gelation, rheology (G′, G″) and viscosity of peptide solutions; type: physicochemical; conditions: for Gel Formation: 5 mM peptide concentration, in deionized water; for viscosity (in words): 5 mM peptide solutions, shear rate 100 s^-1, n = 4
Procedure: An ARES 2000ex rotational rheometer (TA Instruments, New Castle, DE) was used to evaluate the viscosity and viscoelastic properties of the peptides. Peptides were freshly solubilized in deionized water at 5 mM and allowed to incubate for 10 min to allow for complete solubilization. Next, 170 µL of each peptide solution was pipetted directly onto the rheometer stage. A 20 mm parallel plate geometry was lowered to a gap of 200 µm. Storage modulus (G′) and loss modulus (G″) were measured as a function of strain amplitude of 0.05–50% at an angular frequency of 10 rad/s to determine the linear viscoelastic region. Next, G′ and G″ were measured as a function of angular frequency (1–10 rad/s) at a strain of 1%. […] Separately, a Hagen‐Poiseuille viscometer (microVISC, Rheosense, San Ramon, CA) was used at a shear rate of 1000 s^−1 to validate measured viscosity trends.

[2] = Thioflavin T (ThT) fluorescence assay of fibrils; type: physicochemical; conditions: 50 µM peptide, ThT 10 µM, ex 440 nm / em 485 nm, n = 4
Procedure: For ThT assays, 50 µM fibrillated peptide solutions (diluted in UPW from fibrillated peptide solutions as stated above) were mixed with 20 µM ThT solution, and fluorescence was monitored at 485 nm upon excitation at 440 nm in a 96‐well plate using a Synergy HT plate reader (Biotek, USA). The OVA‐conjugated peptide fibrils were used to assess long‐term stability over a 7‐day period.

[3] = system: mouse bone-marrow dendritic cells (DCs); assay: Cytokine and chemokine release from BMDC cultures treated with nanofibers; type: cell-based; conditions: BMDCs treated with peptide nanofibers 10 μM for 24 h, supernatant analysed
Procedure: The femurs and tibiae of mice of C57BL/6 mice were flushed, and single‐cell suspensions were prepared, following removal of red blood cells (RBCs) using lysis buffer (Invitrogen, USA). After washing twice using HBSS (Hanks balanced salt solution), cells were differentiated for 7–9 days in complete Roswell Park Memorial Institute (RPMI) 1640 media containing heat‐inactivated Fetal bovine serum (FBS) (10%), β‐mercaptoethanol (55 µM), sodium pyruvate (1 mM), 10 mM 4‐hydroxyethylpiperazine ethane sulfonic acid (HEPES), 1× MEM (Minimum Essential Medium) non‐essential amino acids, 20 ng/mL granulocyte‐macrophage colony‐stimulating factor (GM‐CSF), 5 ng/mL IL‐4 and 100 µg/mL Penicillin‐Streptomycin (pen‐strep) in 150 mm dish (25 mL/dish) in an incubator at standard conditions (37°C and 5% CO2). Cells were harvested using gentle washing with MEM media between days 7–9 for experiments.
[picture] Figure S16. Cytokines and chemokines production in mouse bone-marrow dendritic cells (DCs) treated with peptide nanofibers (10 μM) for 24 h.

[4] = Negative-stain TEM of self-assembled peptide fibrils (width, length, morphology); type: physicochemical; conditions: for self-assembly / fibril morphology (in words): in water, identical preparation conditions; for fibril width: assembled in water, 10 µM on grid, n = 200 measurements from 30 fibrils
Procedure: Peptide solutions (10 µM; diluted in UPW from fibrillated peptide solutions as stated above) were applied directly to 200‐mesh, carbon‐coated copper grids for 2 min and stained with 1% uranyl formate for 1 min. Excess stain and the peptide solution were blotted using filter paper, and grids were washed thrice with UPW. Darkfield images were acquired on a JEOL (Akishima, Japan) JEM‐2100F Field‐Emission STEM microscope at an accelerating voltage of 120 kV.
Individual fibers were selected for measurement, avoiding aggregates. The width of each fiber was measured using the line tool by drawing a line across the fiber's width at an angle approximately perpendicular (90°) to its orientation to ensure accuracy. Similar measurements were done to calculate the length of the fibrils. The start and end points of the line were determined based on the contrast between the fiber and the surrounding background. […]

[5] = comparison values for longer KFE peptides; ref [14], [37]; cited from earlier work
Text: All the KFE5 peptide SAXS curves fit simple shape models of long polydisperse rods plus smaller globular components (Figure 5A). The characteristics of these rods, extracted from fitting to a Guinier‐plate model, are almost identical with an average rod or tape thickness estimated at 31.9(1) Å (Figure 5B). This is similar to our previously measured values for KFE8 and KFE12 [14, 37]. This thickness, which includes contributions from the solvent layer, matches the β‐sheet sandwich model. This appears to be a common feature of the KFE peptides that is not disrupted by the modification of the ...

[6] = Small-angle X-ray scattering (SAXS) of peptide assemblies; type: physicochemical; conditions: 4 mg/mL in deionized water (CN 2 mg/mL), 10°C, Debye‐Bueche fit 0.015–0.10 Å^−1
Procedure: SAXS data of the KFE5 X‐phenyl substituted peptide solutions were collected using a Rigaku (Woodlands, TX) BioSAXS‐1000 camera on an FRE^++ X‐ray generator with an ASC‐96 Automated Sample Changer held at 10°C. A matching buffer was collected for each sample. The detector was calibrated using a silver behenate powder sample, following the manufacturer's recommended procedure. The SAXS samples (KFE5 and its variants) were prepared by dissolving […] of lyophilized peptide in 400 µL of deionized water to produce a final concentration of 4 mg/mL. The samples were then vortexed, and precipitants were removed by centrifugation at […] for 5 min. Although the samples formed gels, these remained fluid under hydrostatic pressure, permitting pipetting by the ASC‐96 liquid handling system. The cyano variant of KFE5 was an exception. It remained a gel at 4 mg/mL and needed to be diluted to 2 mg/mL to be pipetted or flowed in the ASC‐96 liquid sample handling system. Processing was performed in SAXSLab (Rigaku) and SAXNS‐ES (https://xray.utmb.edu/SAXNS). Analyses were performed in Primus/GNOM [81], BIFT [82, 83], and gnuplot (http://www.gnuplot.info).

[7] = target: the molecule itself; assay: negative-stain TEM; peptide solutions 10 µM, diluted in ultrapure water from fibrillated 1 mM stocks, on carbon-coated copper grids, 1% uranyl formate

Gel Formation [1] | self-assembly / fibril morphology (in words) [4] | fibril width [4] | Molecule | viscosity (in words) [1] | binding result [7] | other results
No | complete ablation | – | Ac-YKYEY-NH2 [KFE5(OH)] | lowest viscosities | – | storage modulus G′, fold lower than parent peptide ([1]; 5 mM peptide, strain 1%, angular frequency 10 rad/s, n = 3): approximately 2.5 fold; ThT fluorescence intensity (in words) [2]: lowest and comparable to ThT alone; cytokine and chemokine release profile (in words) [3]: release of MIP‐1α and MIP‐1β without TNF‐α secretion
– | thin nanofibrils | 8–10 nm | CC(=O)N[C@@H](Cc1ccccc1)C(=O)N[C@@H](CCCCN)C(=O)N[C@@H](Cc1ccccc1)C(=O)N[C@@H](CCC(=O)O)C(=O)N[C@@H](Cc1ccccc1)C(=O)N[C@@H](CCCCN)C(=O)N[C@@H](Cc1ccccc1)C(=O)N[C@@H](CCC(=O)O)C(N)=O [KFE8, reference compound] | – | – | gel inhomogeneity‐correlation length (ζ) [5]: 25 Å
No | broader tape‐like structures | 50–100 nm | Ac-FKFEF-NH2 [KFE5, Ac‐FKFEF‐Am] | highest viscosity among the non‐gelling derivatives | – | gel inhomogeneity‐correlation length (ζ) [6]: about 58 Å
– | – | – | Ac-FKFEF-NH2 (designed amphipathic pentapeptide, truncated variant of KFE8; also called KFE5(H); source: synthetic peptide (Fmoc-SPPS on Rink Amide resin, HPLC purified)) [KFE5 (Ac-FKFEF-Am)] | – | binds | –
– | – | – | Ac-FKFEFKFE-NH2 (designed amphipathic octapeptide; also called double repeat of FKFE) [KFE8 (Ac-FKFEFKFE-Am)] | – | binds | –
